# Read-outs that look alike come from different tables or passages of the source.
# What was measured:
# S. aureus 1086 = assay: MIC, standard microdilution; format: cell-based, Staphylococcus aureus; settings: for MIC: Staphylococcus aureus, read-out: minimum inhibitory concentration (MIC)
# Summary of the method: (§1)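 Read-out is the MIC from a standard microdilution susceptibility test. The procedure was performed as laid down in the NCCLS guideline for aerobic organisms.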
# S. aureus 745 = assay: MIC, standard microdilution; format: cell-based, Staphylococcus aureus; settings: for MIC: Staphylococcus aureus, read-out: minimum inhibitory concentration (MIC)
# Summary of the method: as §1
# S. aureus ATCC29213 = assay: MIC, standard microdilution; format: cell-based, Staphylococcus aureus; settings: for MIC: Staphylococcus aureus, read-out: minimum inhibitory concentration (MIC)
# Summary of the method: as §1
# E. coli ATCC25922 = assay: MIC, standard microdilution; format: cell-based; settings: for MIC: Escherichia coli, read-out: minimum inhibitory concentration (MIC)
# Summary of the method: as §1
# [1] = system: P. aeruginosa ATCC27853 (+Ery. 32 μg/ml); assay: MIC, standard microdilution; format: cell-based
# Summary of the method: as §1
# St. pneumoniae 1/1 = assay: MIC, standard microdilution; format: cell-based, Streptococcus pneumoniae; settings: for MIC: Streptococcus pneumoniae, read-out: minimum inhibitory concentration (MIC)
# Summary of the method: as §1
# St. pneumoniae 1/4 = assay: MIC, standard microdilution; format: cell-based, Streptococcus pneumoniae; settings: for MIC: Streptococcus pneumoniae, read-out: minimum inhibitory concentration (MIC)
# Summary of the method: as §1
# St. pneumoniae 12288 = assay: MIC, standard microdilution; format: cell-based, Streptococcus pneumoniae; settings: for MIC: Streptococcus pneumoniae, read-out: minimum inhibitory concentration (MIC)
# Summary of the method: as §1
# St. pneumoniae SL199T = assay: MIC, standard microdilution; format: cell-based, Streptococcus pneumoniae; settings: for MIC: Streptococcus pneumoniae, read-out: minimum inhibitory concentration (MIC)
# Summary of the method: as §1
# H. influenzae 11 = assay: MIC, agar dilution, HTM medium; format: cell-based, Haemophilus influenzae
# From the text: (§2) The biological activities of compounds of the present invention against Haemophilus influenzae have been determined by standard agar dilution method using HTM medium (National Committee for Clinical Laboratory Standards. 1997. Methods for dilution antimicrobial susceptibility tests for bacteria that grow aerobically, 4th edition. Approved standard M7-A4. National Committee for Clinical Laboratory Standards, Wayne, Pa.).
# H. influenzae 12214 = assay: MIC, agar dilution, HTM medium; format: cell-based, Haemophilus influenzae
# From the text: as §2
# H. influenzae 1 = assay: MIC, agar dilution, HTM medium; format: cell-based, Haemophilus influenzae
# From the text: as §2
# H. influenzae 23145 = assay: MIC, agar dilution, HTM medium; format: cell-based, Haemophilus influenzae
# From the text: as §2
# H. influenzae 23369 = assay: MIC, agar dilution, HTM medium; format: cell-based, Haemophilus influenzae
# From the text: as §2
# H. influenzae 2947 = assay: MIC, agar dilution, HTM medium; format: cell-based, Haemophilus influenzae
# From the text: as §2
# H. influenzae 3201 = assay: MIC, agar dilution, HTM medium; format: cell-based, Haemophilus influenzae
# From the text: as §2
# H. influenzae 3457 = assay: MIC, agar dilution, HTM medium; format: cell-based, Haemophilus influenzae
# From the text: as §2
# H. influenzae 3640 = assay: MIC, agar dilution, HTM medium; format: cell-based, Haemophilus influenzae
# From the text: as §2
# H. influenzae 4139 = assay: MIC, agar dilution, HTM medium; format: cell-based, Haemophilus influenzae
# From the text: as §2
# H. influenzae ATCC 49247 = assay: MIC, agar dilution, HTM medium; format: cell-based, Haemophilus influenzae
# From the text: as §2
# H. influenzae ATCC 9334 = assay: MIC, agar dilution, HTM medium; format: cell-based, Haemophilus influenzae
# From the text: as §2
# H. influenzae B 1501 = assay: MIC, agar dilution, HTM medium; format: cell-based, Haemophilus influenzae
# From the text: as §2
# H. influenzae Christy = assay: MIC, agar dilution, HTM medium; format: cell-based, Haemophilus influenzae
# From the text: as §2
# H. influenzae H13 LAH = assay: MIC, agar dilution, HTM medium; format: cell-based, Haemophilus influenzae
# From the text: as §2
# H. influenzae H20 HDL = assay: MIC, agar dilution, HTM medium; format: cell-based, Haemophilus influenzae
# From the text: as §2
# H. influenzae H28 HEL = assay: MIC, agar dilution, HTM medium; format: cell-based, Haemophilus influenzae
# From the text: as §2
# H. influenzae H36 ODL = assay: MIC, agar dilution, HTM medium; format: cell-based, Haemophilus influenzae
# From the text: as §2
# H. influenzae QK 12/87 = assay: MIC, agar dilution, HTM medium; format: cell-based, Haemophilus influenzae
# From the text: as §2
# H. influenzae QK 50 = assay: MIC, agar dilution, HTM medium; format: cell-based, Haemophilus influenzae
# From the text: as §2
# H. influenzae Rd KW20 = assay: MIC, agar dilution, HTM medium; format: cell-based, Haemophilus influenzae
# From the text: as §2
# [2] = Haemophilus influenzae, read-out: MIC
# [3] = Haemophilus influenzae, ATCC49247, read-out: MIC
# [4] = Haemophilus influenzae, ATCC9334, read-out: MIC
# [5] = Haemophilus influenzae, B1501, read-out: MIC
# [6] = Haemophilus influenzae, H13LAH, read-out: MIC
# [7] = Haemophilus influenzae, H20HDL, read-out: MIC
# [8] = Haemophilus influenzae, H28HEL, read-out: MIC
# [9] = Haemophilus influenzae, H36ODL, read-out: MIC
# [10] = Haemophilus influenzae, QK12/87, read-out: MIC
# [11] = Haemophilus influenzae, QK50, read-out: MIC
# [12] = Haemophilus influenzae, RDKW20, read-out: MIC
smiles,measurement,setting,value
"CC[C@H]1OC(=O)[C@H](C)[C@@H](O[C@H]2C[C@@](C)(OC)[C@@H](O)[C@H](C)O2)[C@H](C)[C@@H](O[C@@H]2O[C@H](C)C[C@H](N(C)C)[C@H]2O)[C@](C)(OC)C[C@@H](C)C(=O)[C@H](C)[C@@H](O)[C@]1(C)O [Clarithromycin (2), clarithromycin]",MIC,S. aureus 1086,16 µg/mL
same,MIC,S. aureus 745,> 16 µg/mL
same,MIC,S. aureus ATCC29213,0.25 µg/mL
same,MIC,E. coli ATCC25922,> 16 µg/mL
same,minimum inhibitory concentration (MIC),[1],>16 µg/mL
same,MIC,St. pneumoniae 1/1,≤ 0.12 µg/mL
same,MIC,St. pneumoniae 1/4,16 µg/mL
same,MIC,St. pneumoniae 12288,> 16 µg/mL
same,MIC,St. pneumoniae SL199T,16 µg/mL
same,MIC,H. influenzae 11; [2],16 µg/mL
same,MIC,H. influenzae 12214; [2],8 µg/mL
same,MIC,H. influenzae 1; [2],8 µg/mL
same,MIC,H. influenzae 23145; [2],8 µg/mL
same,MIC,H. influenzae 23369; [2],16 µg/mL
same,MIC,H. influenzae 2947; [2],16 µg/mL
same,MIC,H. influenzae 3201; [2],16 µg/mL
same,MIC,H. influenzae 3457; [2],1 µg/mL
same,MIC,H. influenzae 3640; [2],4 µg/mL
same,MIC,H. influenzae 4139; [2],4 µg/mL
same,MIC,H. influenzae ATCC 49247; [3],8 µg/mL
same,MIC,H. influenzae ATCC 9334; [4],8 µg/mL
same,MIC,H. influenzae B 1501; [5],8 µg/mL
same,MIC,H. influenzae Christy; [2],8 µg/mL
same,MIC,H. influenzae H13 LAH; [6],8 µg/mL
same,MIC,H. influenzae H20 HDL; [7],4 µg/mL
same,MIC,H. influenzae H28 HEL; [8],4 µg/mL
same,MIC,H. influenzae H36 ODL; [9],16 µg/mL
same,MIC,H. influenzae QK 12/87; [10],2 µg/mL
same,MIC,H. influenzae QK 50; [11],8 µg/mL
same,MIC,H. influenzae Rd KW20; [12],8 µg/mL
"CC[C@H]1OC(=O)[C@H](C)C(=O)[C@H](C)[C@@H](O[C@@H]2O[C@H](C)C[C@H](N(C)C)[C@H]2O)[C@](C)(OC)C[C@@H](C)C(=O)[C@H](C)[C@H]2[C@H](SCCn3ccc(=O)[nH]c3=O)C(=O)O[C@@]21C [Compound I-6, (3S,3aR,4R,6R,8R,9R,10R,12R,15R,15aS)-15-Ethyloctahydro-8-methoxy-4,6,8,10,12,15a-hexamethyl-3-[[2-[2,4-1H,3H-pyriminedione-1-yl]ethyl]-thio]-9-[[3,4,6-trideoxy-3-(dimethylamino)-β-D-xylo-hexopyranosyl]oxy]-2H-furo[2,3-c]oxacyclotetradecin-2,5,11,13(3H,6H,12H)-tetrone]",minimum inhibitory concentration (MIC),S. aureus 1086,<=0.12 μg/ml
same,minimum inhibitory concentration (MIC),S. aureus 745,>16 µg/mL
same,minimum inhibitory concentration (MIC),S. aureus ATCC29213,<=0.12 μg/ml
same,minimum inhibitory concentration (MIC),E. coli ATCC25922,>16 µg/mL
same,minimum inhibitory concentration (MIC),[1],>16 µg/mL
same,minimum inhibitory concentration (MIC),St. pneumoniae 1/1,<=0.12 μg/ml
same,minimum inhibitory concentration (MIC),St. pneumoniae 1/4,<=0.12 μg/ml
same,minimum inhibitory concentration (MIC),St. pneumoniae 12288,4 µg/mL
same,minimum inhibitory concentration (MIC),St. pneumoniae SL199T,1 µg/mL
same,MIC,H. influenzae 11,4 µg/mL
same,MIC,H. influenzae 12214,4 µg/mL
same,MIC,H. influenzae 1,4 µg/mL
same,MIC,H. influenzae 23145,4 µg/mL
same,MIC,H. influenzae 23369,4 µg/mL
same,MIC,H. influenzae 2947,4 µg/mL
same,MIC,H. influenzae 3201,4 µg/mL
same,MIC,H. influenzae 3457,0.25 µg/mL
same,MIC,H. influenzae 3640,2 µg/mL
same,MIC,H. influenzae 4139,2 µg/mL
same,MIC,H. influenzae ATCC 49247,2 µg/mL
same,MIC,H. influenzae ATCC 9334,2 µg/mL
same,MIC,H. influenzae B 1501,2 µg/mL
same,MIC,H. influenzae Christy,2 µg/mL
same,MIC,H. influenzae H13 LAH,2 µg/mL
same,MIC,H. influenzae H20 HDL,1 µg/mL
same,MIC,H. influenzae H28 HEL,2 µg/mL
same,MIC,H. influenzae H36 ODL,4 µg/mL
same,MIC,H. influenzae QK 12/87,1 µg/mL
same,MIC,H. influenzae QK 50,2 µg/mL
same,MIC,H. influenzae Rd KW20,2 µg/mL
"CC[C@H]1OC(=O)[C@H](C)C(=O)[C@H](C)[C@@H](O[C@@H]2O[C@H](C)C[C@H](N(C)C)[C@H]2O)[C@](C)(OC)C[C@@H](C)C(=O)[C@H](C)[C@H]2[C@H](SCCn3cc(C)c(=O)[nH]c3=O)C(=O)O[C@@]21C [Compound I-7, (3S,3aR,4R,6R,8R,9R,10R,12R,15R,15aS)-15-Ethyloctahydro-8-methoxy-4,6,8,10,12,15a-hexamethyl-3-[[2-[5-methyl-2,4-1H,3H-pyrimidinedione-1-yl]ethyl]thio]-9-[[3,4,6-trideoxy-3-(dimethylamino)-β-D-xylo-hexopyranosyl]oxy]-2H-furo[2,3-c]oxacyclotetradecin-2,5,11,13(3H,6H,12H)-tetrone]",MIC,S. aureus 1086,≤ 0.12 µg/mL
same,MIC,S. aureus 745,> 16 µg/mL
same,MIC,S. aureus ATCC29213,≤ 0.12 µg/mL
same,MIC,E. coli ATCC25922,> 16 µg/mL
same,minimum inhibitory concentration (MIC),[1],>16 µg/mL
same,MIC,St. pneumoniae 1/1,≤ 0.12 µg/mL
same,MIC,St. pneumoniae 1/4,≤ 0.12 µg/mL
same,MIC,St. pneumoniae 12288,8 µg/mL
same,MIC,St. pneumoniae SL199T,1 µg/mL
same,MIC,H. influenzae 11; [2],4 µg/mL
same,MIC,H. influenzae 12214; [2],4 µg/mL
same,MIC,H. influenzae 1; [2],4 µg/mL
same,MIC,H. influenzae 23145; [2],4 µg/mL
same,MIC,H. influenzae 23369; [2],8 µg/mL
same,MIC,H. influenzae 2947; [2],4 µg/mL
same,MIC,H. influenzae 3201; [2],4 µg/mL
same,MIC,H. influenzae 3457; [2],0.5 µg/mL
same,MIC,H. influenzae 3640; [2],2 µg/mL
same,MIC,H. influenzae 4139; [2],2 µg/mL
same,MIC,H. influenzae ATCC 49247; [3],4 µg/mL
same,MIC,H. influenzae ATCC 9334; [4],4 µg/mL
same,MIC,H. influenzae B 1501; [5],4 µg/mL
same,MIC,H. influenzae Christy; [2],4 µg/mL
same,MIC,H. influenzae H13 LAH; [6],4 µg/mL
same,MIC,H. influenzae H20 HDL; [7],2 µg/mL
same,MIC,H. influenzae H28 HEL; [8],2 µg/mL
same,MIC,H. influenzae H36 ODL; [9],8 µg/mL
same,MIC,H. influenzae QK 12/87; [10],2 µg/mL
same,MIC,H. influenzae QK 50; [11],4 µg/mL
same,MIC,H. influenzae Rd KW20; [12],4 µg/mL

# Reference: patent US6740642B2, “Macrolides with antibacterial activity” (BAsilea Parmaceutica AG, priority 2000, dated 2004)
